These results are taken from US4914204A, “4-Pentafluorophenoxypiperidines” (priority 1988, dated 1990).

Assay [1] deals with mice. The assay can be described thus: tetrabenazine (TBZ) induced ptosis assay (antidepressant activity). The format is in vivo, mice (male, Charles River, CD-1).
Experimental: In the tetrabenazine induced ptosis assay, male mice (Charles River, CD-1), weighing 20 to 39 g, are used in test groups of five animals. Test compounds are dissolved, or suspended with 1 drop of Tween-80, in distilled water and administered to the animals in volumes of 10 cc per kg of body weight. Tetrabenazine methanesulfonate (76.78% as the free base) is dissolved in distilled water and the concentration of the solution is adjusted so that the dose, administered intraperitoneally (i.p.) to the animals, is 40 mg of tetrabenazine base per kg of animal body weight.
The test compound is administered intraperitoneally (i.p.) or perorally (p.o.) to the subject animals, and the tetrabenazine solution is administered 30 minutes or 60 minutes, respectively, thereafter. Tetrabenazine solution and the solvent used to dissolve or suspend the test compounds are administered by the same route and at the same intervals as the test compounds to a control group.
The subject animals are placed in individual plastic containers (101/2"×8"×6") thirty (i.p.) and sixty minutes (p.o.) after administration of the tetrabenazine solution, and one minute thereafter, the animals are scored for ptosis on the following scale:
The total score for each group of 5 animals will therefore vary from 0 to 20; these scores are used as the indications of the activity of the test compound.
The vehicle-control group score is used as a determination of the validity of each test.
For calculation of the ED50 value of a test compound; i.e., the calculated dose at which the test compound effects a 50% inhibition of tetrabenazine-induced ptosis, four or five doses are administered, and only vehicle-control scores of 17 to 20 are acceptable. A linear-regression analysis is used to estimate ED50 values and 95% confidence limits.
The subject of the next assay is rats. The assay can be described thus: L-5-hydroxytryptophan (5-HTP) potentiation assay (antidepressant activity). The format is in vivo, male Wistar rats.
Assay [2] concerns mice. The assay can be described thus: phenyl-p-benzoquinone writhing assay (analgesic activity). To be noted: for % Inhibition of writhing: screening dose of 20 mg/kg, s.c.; for ED50: Mus musculus, sc, footnote 1 of Table 1, read-out: Analgesic Activity, ED50 (calculated dose effecting 50% inhibition of writhing). The format is in vivo, mice (male, Charles River, CD-1).
Experimental: The procedure employed to determine analgetic utility is a modification of the phenyl-p-benzoquinone writhing assay in mice, a standard assay for analgesia [Proc. Soc. […] Pursuant to the modified procedure phenyl-p-benzoquinone (Eastman, 12.5 mg) is dissolved in 5 ml of 95% ethanol and the solution is diluted to a total volume of 100 ml with distilled water. The solution is administered to the subject mice intraperitoneally at a dose of 10 ml per kg of body weight. A characteristic "writhe" an inward rotation of one or more feet with twisting and turning of the trunk, drawing in of the abdominal wall, lordosis and arching of the back, is produced.
A total of 28 male mice (Charles River, CD-1), weighing 18 to 30 grams, are employed for a time response. The subject animals receive food and water ad libitum. Test compounds are dissolved in distilled water, or suspended in distilled water containing one drop of a suitable surfactant, such as Tween-80.
Four groups of five animals (20 animals) are given the test compound subcutaneously (s.c.) or orally (p.o.) at 15, 30, 45 and 60 minutes prior to administration of the phenyl-p-quinone. A control group (2 animals per group) receive an equal volume of the vehicle. After the administration of the phenyl-p-quinone, the mice are placed separately in one liter beakers, and after five minutes, are observed for ten minutes. The number of writhes for each animal is recorded. The following formula is used to compute the percent inhibition: [formula]
The time period with the greatest percent of inhibition is considered the peak time.
In assay [3] the test system is spontaneous hypertensive rat. Put plainly: antihypertensive activity, indirect tail cuff method. Type of assay: in vivo. To be noted: 50 mg/kg p.o.; measured on third day. The procedure: The compounds of this invention are also useful as antihypertensive agents due to their ability to depress blood pressure in mammals. Antihypertensive activity is measured in the spontaneous hypertensive rat by the indirect tail cuff method described in "Methods in Pharmacology", A. Schwartz, Ed., Vol. I, Appleton-Century Crofts, New York, N.Y., 1971, p. 135. In this procedure a group of five animals is treated orally for three days with the test compound in relation to a control group of the same number. The drop in blood pressure is measured on the third day following administration. The antihypertensive activities of representative compounds, expressed as a decrease in mean arterial blood pressure (in mm Hg), are given in Table 3 along with the activity of a standard compound.

In assay [4] the test system is mice. The assay can be described thus: metrazol lethality assay (MTZ), anticonvulsant activity. The format is in vivo, mice (male, Charles River, CD-1).
The mark [5] stands for this setting: Mus musculus, ip, read-out: TBZ ED50.
[6] abbreviates: Rattus norvegicus, ip; read-out: 5-HTP ED50.
Where [7] appears, read: Mus musculus, ip; read-out: TBZ ED50.
[8] abbreviates: Rattus norvegicus, ip, read-out: 5-HTP ED50.

Where a name gives a salt, the structure may show the parent alone. Read-outs that look alike come from different tables or passages of the source.

Experimental for rats: Antidepressant activity is determined by the L-5-hydroxytryptophan potentiation assay in rats described in Brit.
In the L-5-hydroxytryptophan potentiation assay groups of six male Wistar rats (150-200 grams each) are used. Pargyline hydrochloride is prepared and administered four hours before testing by subcutaneous injection at 75 mg/kg in 1% saline and a dosage volume of 1.0 ml/kg. Thirty minutes before testing, drugs are prepared and dosed using distilled water and, if insoluble, a suitable surfactant is added. Control groups receive vehicle. Drugs are routinely administered intraperitoneally at a dosage volume of 10 ml/kg. L-5-hydroxytryptophan (5-HTP) is prepared at 1.0 mg/kg in distilled water and is administered intraperioneally in volumes proportional to 10 ml/kg.
Potentiation is expressed as normalized percent potentiation relative to vehicle control. ED50 values (the calculated dose at which the test compound effects a 50% inhibition of continuous forelimb clonus) and 95% confidence limits are determined by linear analysis.

For the compound `Cc1ccc(C2(Oc3c(F)c(F)c(F)c(F)c3F)CCN(C)CC2)cc1` [(4-(4-Methylphenyl)-1-methyl-4-(2,3,4,5,6-pentafluorophenoxy)piperidine hydrochloride], the ED50 (commonly the dose at which the effect has come halfway, by size or by number of responders) in the assay with mice [1] (setting [5]) amounted to 7 mg/kg. As for `CP(C)(=O)CN1CCC(Oc2c(F)c(F)c(F)c(F)c2F)CC1` [1-[(Dimethylphosphinyl)methyl]-4-(2,3,4,5,6-pentafluorophenoxy)piperdine], the ED50 with rats (setting [6]) came out at 9.1 mg/kg. For `Cc1ccc(C2(Oc3c(F)c(F)c(F)c(F)c3F)CCNCC2)cc1.O=C(O)/C=C\C(=O)O` [4-(4-Methylphenyl)-4-(2,3,4,5,6-pentafluorophenoxy)piperidine maleate], the values for the ED50 in the assay on mice [1] (setting [7]) and in the assay with rats (setting [6]) were 8.3 mg/kg and 14.5 mg/kg, respectively. Also, the “% Inhibition of writhing” value in the assay on mice [2] amounted to 56%. Take `N=C(N)NCCN1CCCCCCC1` [guanethidine, reference compound]: the “SHR mm dec. in blood pressure (decrease in mean arterial blood pressure)” value in assay [3] is on record as 20 mm Hg. For `CN1CCC(Oc2c(F)c(F)c(F)c(F)c2F)(c2ccccc2F)CC1.O=C(O)C(=O)O` [4-(2-Fluorophenyl)-1-methyl-4-(2,3,4,5,6-pentafluorophenoxy) piperidine oxalate], the ED50 in the assay on mice [1] (setting [5]) came out at 3.8 mg/kg. Turning to `Cl.Fc1ccc2c(CCCN3CCC(Oc4c(F)c(F)c(F)c(F)c4F)CC3)noc2c1` [1-[(6-Fluoro-1,2-benzisoxazol-3-yl)propyl]-4-(2,3,4,5,6-pentafluorophenoxy)piperidine hydrochloride], the “SHR mm dec. in blood pressure (decrease in mean arterial blood pressure)” value in assay [3] amounted to 62 mm Hg. Consider `COc1ccc(C2(Oc3c(F)c(F)c(F)c(F)c3F)CCN(C)CC2)cc1.Cl` [4-(4-Methoxyphenyl)-1-methyl-4-(2,3,4,5,6-pentafluorophenoxy) piperidine hydrochloride], for which the “% Inhibition of writhing” value with mice [2] came to 53%.

Consider `CN1CCC(Oc2c(F)c(F)c(F)c(F)c2F)(c2ccc(F)cc2)CC1.Cl` [4-(4-Fluorophenyl)-1-methyl-4-(2,3,4,5,6-pentafluorophenoxy)p iperidine hydrochloride], for which the ED50 with mice [1] (setting [5]) stood at 5.4 mg/kg; with rats (setting [8]), 7 mg/kg. The “Percent inhibition of Metrazol lethality” value with mice [4] (30 mg/kg i.p., footnote 2 of Table 2) was 80%. In the assay with mice [2], the “% Inhibition of writhing” value stood at 49%. Turning to `Cl.Fc1ccc(C2(Oc3c(F)c(F)c(F)c(F)c3F)CCNCC2)cc1` [4-(4-Fluorophenyl)-4-(2,3,4,5,6-pentafluorophenoxy)piperidine hydrochloride], the ED50 in the assay with mice [1] (setting [7]) is 4.8 mg/kg; with rats (setting [6]), less than 10 mg/kg. The “% Inhibition of writhing” value in the assay with mice [2] is listed as 58%. Consider `CN(C)CCC=C1c2ccccc2CCc2ccccc21` [amitriptyline, reference compound], for which the ED50 was 1.5 mg/kg in the assay on mice [1] (setting [7]) and 7.1 mg/kg with rats (setting [6]). The matching figures for `CN1CCC(Oc2c(F)c(F)c(F)c(F)c2F)CC1` [1-methyl-4-(2,3,4,5,6-pentafluorophenoxy)piperidine]: 4.7 mg/kg and 4.7 mg/kg. With `Fc1c(F)c(F)c(OC2(c3ccc(Cl)cc3)CCNCC2)c(F)c1F.O=C(O)/C=C/C(=O)O` [4-(4-Chlorophenyl)-4-(2,3,4,5,6-pentafluorophenoxy)piperidine fumarate], the results for the ED50 with mice [1] (setting [7]) and in the assay with rats (setting [6]) were 20 mg/kg and 37 mg/kg, respectively. Besides, the “% Inhibition of writhing” value with mice [2] is 66%. For the compound `Cl.Fc1c(F)c(F)c(OC2CCNCC2)c(F)c1F` [4-(2,3,4,5,6-Pentafluorophenoxy)piperidine hydrochloride], the ED50 in the assay on mice [2] was 20 mg/kg.

Turning to `Fc1c(F)c(F)c(OC2(c3ccccc3)CCN(Cc3ccccc3)CC2)c(F)c1F` [1-Benzyl-4-(2,3,4,5,6-pentafluorophenoxy)-4-phenyl piperidine], in assay [3], the “SHR mm dec. in blood pressure (decrease in mean arterial blood pressure)” value is listed as 40 mm Hg. With `CN1CCC(Oc2c(F)c(F)c(F)c(F)c2F)(c2ccc(Cl)cc2)CC1.O=C(O)/C=C/C(=O)O` [4-(4-Chlorophenyl)-1-methyl-4-(2,3,4,5,6-pentafluorophenoxy)p iperidine fumarate], the figures for the ED50 with mice [1] (setting [5]) and with rats (setting [8]) were 38.9 mg/kg and 11.9 mg/kg, respectively. Compound `N#CN1CCC(Oc2c(F)c(F)c(F)c(F)c2F)(c2ccccc2)CC1` [1-Cyano-4-(2,3,4,5,6-pentafluorophenoxy)-4-phenyl piperidine] gave an ED50 with mice [4] (Mus musculus, po) of 55.2 mg/kg. The “% Inhibition of writhing” value in the assay on mice [2] is 52%. Turning to `Fc1ccccc1C1(Oc2c(F)c(F)c(F)c(F)c2F)CCNCC1.O=C(O)/C=C\C(=O)O` [4-(2-Fluorophenyl)-4-(2,3,4,5,6-pentafluorophenoxy)piperidine maleate], the ED50 with mice [1] (setting [7]) was 6.4 mg/kg; in the assay with rats (setting [6]), less than 20 mg/kg. The matching figures for `Fc1c(F)c(F)c(OC2(c3ccccc3)CCNCC2)c(F)c1F.O=C(O)/C=C\C(=O)O` [4-(2,3,4,5,6-Pentafluorophenoxy)-4-phenylpiperidine maleate]: 1 mg/kg and 14.5 mg/kg. In the case of `CN1CCC(Oc2c(F)c(F)c(F)c(F)c2F)(c2ccccc2)CC1.Cl` [1-methyl-4-(2,3,4,5,6-pentafluorophenoxy)-4-phenylpiperidine hydrochloride], the ED50 with mice [1] (setting [5]) was determined as 1.3 mg/kg; with rats (setting [8]), 8.1 mg/kg. In the case of `COc1ccccc1N1CCN(CCCCN2CCC(Oc3c(F)c(F)c(F)c(F)c3F)CC2)CC1` [1-{4-[1-[4-(2-Methoxyphenyl)piperazin-1-yl]butyl]}-4-(2,3,4,5,6-pentafluorophenoxy)piperidine dioxalate], the ED50 in the assay on mice [2] is 19 mg/kg.
